Source: article PMC10783051 (Microbiology Spectrum, 2023)

Tested on: S. venezuelae supernatant (secreted enzymes)
Test: In vitro degradation of CLPs by S. venezuelae cell-free supernatant
Type: in vitro ADME, Streptomyces venezuelae ATCC 10712
Settings: pure CLPs (100 µM) incubated 24 h at 30°C with 4% (vol/vol) Sv CFS (grown on ISP2, 0.22-µm filtered), shaking 180 rpm; UPLC-MS/MS with feature-based molecular networking
Description: S. venezuelae cultures were performed on ISP2 medium at 28°C (yeast extract 4 g/L, malt extract 10 g/L, glucose 4 g/L, agar 20 g/L; pH 7.3). On 12 × 12 cm Petri square plates, three stripes (1 × 12 cm) of spores were inoculated with a cotton swab [40 µL of spores suspension (10^7 spores/mL) each], spaced by 3 cm each. The plates were left for 7 days of incubation. Next, the agar media was recovered and placed in Falcon tubes at −20°C for 24 h. Then, the agar media were defrosted at room temperature and centrifuged (8,000 rpm for 20 min). Finally, the supernatant leaked from the agar was collected, filtered sterilized (0.22-µm pore size filters) and stored at −20°C until further use. The heat-treated Sv supernatant was generated by incubating an aliquot of the cell-free supernatant of Sv for 10 min at 98°C. The supernatant was then filtered (0.22-µm pore size filters) and stored at −20°C until further use.
[…] Then the solutions were incubated for 24 h at 30°C with continuous shaking (180 rpm). Next, the solution were centrifuged (1 min at 10,000 rpm), filtered (0.22-µm pore size filters), and analyzed by UPLC-MS.
The degradation assays of Pseudomonas CLPs were performed using CFS generated as described above. They were supplemented by 4% (vol/vol) of S. venezuelae CFS prepared as described previously. Next, the solutions were incubated for 24 h at 30°C with continuous shaking (180 rpm). Then, the solution were centrifuged (1 min at 10,000 rpm), filtered (0.22-µm pore size filters), and analyzed by UPLC-MS.
For the CLP degradation kinetic experiments, surfactin, iturin, and fengycin solutions supplemented with S. venezuelae supernatant were prepared following the same protocol. Twenty microliters of solution was sampled at each time point and directly mixed with 80 µL of acetonitrile to stop enzymatic degradation. Finally, they were stored at −20°C until analysis by UPLC-MS.
All UPLC-MS analyses were performed using an Agilent 1290 Infinity II coupled with a diode array detector and a mass detector (Jet Stream ESI-Q-TOF 6530) in positive mode with the parameters set up as follows: capillary voltage of 3.5 kV, nebulizer pressure of 35 lb/in^2, drying gas of 8 L/min, drying gas temperature of 300°C, flow rate of sheath gas of 11 L/min, sheath gas temperature of 350°C, fragmentor voltage of 175 V, skimmer voltage of 65 V, and octopole radiofrequency of 750 V. Accurate mass spectra were recorded in the m/z range of 300–1,700. For untargeted MS/MS, we used the same MS1 parameters as described. We added MS2 untargeted acquisition mode with the parameters as follows: MS/MS range 50–1,700 m/z; MS/MS scan rate 3 spectra/s; isolation width MS/MS medium (approx. 4 AMU), Decision Engine Native; fixed collision energies of 25 and 40 V for surfactin, 50 V for iturin, and 60 V for fengycin experiments; precursor selection: three for the surfactin experiment, four for the iturin and fengycin experiments, threshold 1,500 (Abs), isotope model common, active exclusion after two spectra and release after 0.5 min, sorting the precursors by charge state then abundance (charge state preference 1). For targeted MS/MS, we used the same MS1 parameters MS/MS range of 50–1,700 m/z or 50–3,200 (when required for Pseudomonas CLPs with mass >1,700 Da), MS/MS scan rate 3 spectra/s, isolation width MS/MS narrow (approx. 1.3 amu), and fixed collision energies 20, 40, and 60V. In all experiments, a C18 Acquity UPLC ethylene bridged hybrid column (2.1 mm × 50 mm × 1.7 µm; Waters Corporation, Milford, MA, USA) was used at a flow rate of 0.6 mL/min and a temperature of 40°C. The injection volume was 20 µL, and the diode array detector scanned a wavelength spectrum between 190 and 600 nm. Unless otherwise mentioned, a gradient of acidified water (0.1% formic acid) (solvent A) and of acidified acetonitrile (0.1% formic acid) (solvent B) was used as mobile phase with a constant flow rate of 0.6 mL/min, starting at 10% B and rising to 100% B in 20 min. […]

## iturin
  degradation of pure Bacillus CLPs by Sv CFS: degrades
